These are literature values, as cited in US7816298B2, “Hydroconversion processes employing multi-metallic catalysts and method for making thereof” (Chevron U. S. A. Inc., priority 2007, dated 2010).

In this data set the test system is rats. Particulars: as single oral dose to rats; values quoted for chelating agents (ligand L).

Take `O=CC(=O)O` [glyoxylic]: the LD50 (in general, the dose expected to kill half of the subjects tested) is reported as 3000 mg/kg.
